The Deep4Chem optical property database
Values joined by “and” are separate entries in the source; they are usually repeats but may differ in a detail not shown here. Identical values can stand only once. One block for each molecule: values may come before it.

Experiment: solvent given as SMILES

- absorption maximum (in CC#N): 317 nm
Compound: COc1ccc(/C=C/c2ccccc2)cc1

- absorption maximum (in ClCCl): 433 nm
Compound: CN(C)c1ccc(/C=C/c2ncnc3ccccc23)cc1

- absorption maximum (in C1COCCO1): 456 nm
Compound: CC(=O)Nc1ccc(C2=C/C(=C\c3ccc(C#N)cc3)C(=O)N2)cc1

- absorption maximum (in C1CCCCC1): 421 nm
- absorption maximum (in CC#N): 432 nm
- absorption maximum (in CCO): 433 nm
Compound: COc1ccc2c(c1)C(=O)c1ccccc1-2

- absorption maximum (in O): 409 nm
Compound: O=C(O)CCCCCNC(=O)c1cccc2c(=O)c3ccccc3[nH]c12

- absorption maximum (in C1CCOC1): 500 nm
- absorption maximum (in CC#N): 493 nm
- absorption maximum (in CCO): 504 nm
- absorption maximum (in CCOC(C)=O): 496 nm
- absorption maximum (in ClCCl): 502 nm
- absorption maximum (in c1ccccc1): 500 nm
Compound: CC1(C)CC(/C=C/c2ccc(N3CCOCCOCCOCCOCC3)cc2)=CC(=C(C#N)C#N)C1

- absorption maximum (in ClCCl): 410 nm
Compound: CCN(CC)c1ccc2cc(-c3nc4c5ccccc5c5ccccc5c4n3-c3ccc(C(C)(C)C)cc3)c(=O)oc2c1

- absorption maximum (in CC#N): 400 nm
- absorption maximum (in ClCCl): 404 nm
Compound: COC(=O)c1cc(=O)n(C)c2cc(-c3ccc4c(c3)OCO4)sc12

- absorption maximum (in C1CCCCC1): 429 nm
- absorption maximum (in C1CCOC1): 404 nm
- absorption maximum (in C1COCCO1): 387 nm
- absorption maximum (in CC#N): 393 nm and 363 nm
- absorption maximum (in CCCCCC): 428 nm and 427 nm
- absorption maximum (in CO): 391 nm
- absorption maximum (in ClC(Cl)Cl): 414 nm and 388 nm
- absorption maximum (in ClCCl): 408 nm
Compound: F[B-]1(F)n2c(nc(-c3ccccc3)c2-c2ccccc2)-c2cccc[n+]21

- absorption maximum (in ClC(Cl)Cl): 450 nm
Compound: O=Cc1ccc(C#CC(C#Cc2ccc(C=O)o2)=Cc2ccc(C=C(C#Cc3ccc(C=O)o3)C#Cc3ccc(C=O)o3)cc2)o1

- absorption maximum (in ClC(Cl)Cl): 438 nm
Compound: C(#Cc1cccs1)C(C#Cc1cccs1)=Cc1ccc(C=C(C#Cc2cccs2)C#Cc2cccs2)cc1

- absorption maximum (in CC#N): 618 nm
Compound: CC1=CC(/C=C/c2ccc([N+](C)(C)C)cc2)=[N+]2C1=C(c1ccc(C#CCO[C@@H]3O[C@H](CO)[C@@H](O)C(O)[C@H]3O)cc1)c1c(C)cc(/C=C/c3ccc([N+](C)(C)C)cc3)n1[B-]2(F)F (some centres undefined)

- absorption maximum (in CS(C)=O): 516 nm
Compound: CCCCN1/C(=C/C=C/C2=[N+](C)c3ccccc3C2(C)C)Oc2ccccc21

- absorption maximum (in CO): 453 nm
Compound: C1=CN2C[n+]3ccc4ccccc4c3N=C2c2ccccc21

- absorption maximum (in O): 346 nm
Compound: O=S(=O)([O-])c1cccc2c([O-])cccc12

- absorption maximum (in CC(C)O): 285 nm
- absorption maximum (in CCCCCC): 285 nm
- absorption maximum (in CO): 284 nm
- absorption maximum (in CS(C)=O): 286 nm
- absorption maximum (in ClCCl): 286 nm
Compound: COc1ccccc1-c1nc(-c2ccc(C(F)(F)F)cc2)n(-c2ccc(C)cc2)c1-c1ccccc1OC

- absorption maximum (in ClCCl): 426 nm
- absorption maximum (in O): 394 nm
Compound: N#CC(C#N)=Cc1ccc(-c2ccc(-c3nc4ccccc4s3)c(O)c2)o1

- absorption maximum (in C1COCCO1): 322 nm
- absorption maximum (in CC#N): 321 nm
- absorption maximum (in CO): 321 nm
- absorption maximum (in O): 318 nm
Compound: O=c1[nH]c(=O)n([C@@H]2O[C@H](CO)[C@@H](O)[C@H]2O)cc1-c1cc2ccccc2s1

- absorption maximum (in O): 500 nm
Compound: CN(C)c1ccc2cc3ccc(N(C)C)cc3nc2c1

- absorption maximum (in C1CCCCC1): 388 nm
Compound: CCCCCCCCOc1ccc2c3c(c4ccc(OCCCCCCCC)cc4c2c1)C(C)(C)c1ccccc1-3

- absorption maximum (in C1COCCO1): 403 nm
Compound: COC(=O)c1ccc(/C=C2\N=C(c3ccc(OC)c(OC)c3)NC2=O)cc1

- absorption maximum (in CC#N): 234 nm
- absorption maximum (in CCCCCC): 238 nm
Compound: Cc1ccc(-n2c(C)ccc2C)cc1

- absorption maximum (in ClCCl): 626 nm
Compound: C1=C2C3=C(C4=[N+]2[B-]2(Oc5ccccc54)Oc4ccccc4-c4c5c(c1n42)C1CCC5CC1)C1CCC3CC1 (centres undefined)

- absorption maximum (in CC#N): 397 nm
Compound: COc1cccc(-c2nc3c([nH]2)C2=CC(=O)S[C@]2(C)[C@@]2(C)SC(=O)C=C32)c1OC

- absorption maximum (in ClCCl): 368 nm
Compound: CC(=O)c1c(N[C@@H](Cc2ccc(O)cc2)C(=O)O)c2ccc(N(C)C)cc2oc1=O

- absorption maximum (in CCO): 430 nm
- absorption maximum (in ClCCl): 436 nm
Compound: CCN(CC)c1ccc2cc(C#N)/c(=N\C(=O)c3ccc(C)cc3)oc2c1

- absorption maximum (in C1CCOC1): 236.81 nm
- absorption maximum (in CCO): 233.58 nm
- absorption maximum (in O): 233.33 nm
Compound: N#Cc1ccc(C[C@H](N)C(=O)O)cc1

- absorption maximum (in C1CCCCC1): 405 nm
Compound: CCc1ccc2ccc(-c3ccccc3)nn12

- absorption maximum (in C1CCOC1): 436 nm
Compound: CN(C)c1ccc(C(=Cc2ccc(/C=C(\C#N)c3ccccc3)cc2)c2ccc(N(C)C)cc2)cc1

Further lines, the molecule ahead of its results:

Compound: CCC1(CC)c2cc(/C=C/c3ccc(N(c4ccccc4)c4ccccc4)cc3)ccc2-c2ccc(/C=C/c3ccc(N(c4ccccc4)c4ccccc4)cc3)cc21
- absorption maximum (in Cc1ccccc1): 412 nm

Compound: CC1(C)c2ccccc2N2c3ccccc3C3(c4cc(C#N)ccc4-c4ccc(C#N)cc43)c3cccc1c32
- absorption maximum (in Cc1ccccc1): 327.78 nm

Compound: c1ccc(-n2c3ccccc3c3cc(-n4ccc5cc(-c6ccc(C7(c8ccccc8)c8ccccc8-c8ccccc87)cc6)ccc54)ccc32)cc1
- absorption maximum (in ClCCl): 308 nm

Compound: COCCC1=Cc2nc1ccc1[nH]c(cc1CCOC)c1nc(c(NC(=O)CCCC(=O)OC)cc3[nH]c2cc3CCOC)C(CCOC)=C1
- absorption maximum (in Cc1ccccc1): 670 nm

Compound: N#C/C(=C/Nc1ccc(C#N)cc1)c1nc(-c2ccccc2)cs1
- absorption maximum (in CC#N): 372 nm
- absorption maximum (in CCO): 373 nm
- absorption maximum (in CN(C)C=O): 376 nm
- absorption maximum (in Cc1ccccc1): 377 nm
- absorption maximum (in ClCCl): 375 nm

Compound: CC1=[N+]2C(=C(c3ccc4c(c3)Cc3ccccc3-4)c3ccc(C)n3[B-]2(F)F)C=C1c1cc2n(c1)[B-](F)(F)[N+]1=CC=CC1=C2c1c(C)cc(C)cc1C
- absorption maximum (in C1CCCCC1): 597.5 nm
- absorption maximum (in CCOC(C)=O): 598.5 nm

Compound: Cc1cc(C#Cc2ccccc2)c2ccc3c(C#Cc4ccccc4)cc(C#Cc4ccccc4)c4ccc1c2c43
- absorption maximum (in CS(C)=O): 451 nm
- absorption maximum (in ClC(Cl)(Cl)Cl): 445 nm

Compound: COc1ccc(N(c2ccccc2)c2ccc(OC)cc2)cc1
- absorption maximum (in Cc1ccccc1): 300 nm

Compound: c1cc2ccc3[se]c4ccc5cccc6c(c1)c2c3c4c56
- absorption maximum (in ClC(Cl)Cl): 416.5 nm

Compound: CC1=CC(C)=[N+]2C1=C(c1ccccc1)c1c(C)c(-c3cccs3)c(C)n1[B-]2(F)F
- absorption maximum (in CO): 507 nm
- absorption maximum (in Cc1ccccc1): 513 nm
- absorption maximum (in ClCCl): 511 nm

Compound: COc1ccc(-c2c3cc4cc(C)sc4cc3c(-c3ccc(OC)cc3)c3cc4cc(C)sc4cc23)cc1
- absorption maximum (in ClCCl): 500 nm

Compound: OC1(c2ccc(-c3cccs3)s2)CCCCC1
- absorption maximum (in C1CCOC1): 312 nm
- absorption maximum (in CC#N): 309 nm
- absorption maximum (in CCCCCC): 308 nm
- absorption maximum (in CCO): 309 nm
- absorption maximum (in OCCOCCO): 317 nm
- absorption maximum (in c1ccncc1): 315 nm

Compound: C1=C(c2ccccn2)[Si](c2ccccc2)(c2ccccc2)c2ccccc21
- absorption maximum (in ClCCl): 339 nm

Compound: COc1ccc2cc(C3=[N+]4C(=Nc5c(-c6ccccc6)cc(-c6ccc7cc(OC)ccc7c6)n5[B-]4(F)F)C(c4ccccc4)=C3Br)ccc2c1
- absorption maximum (in ClC(Cl)Cl): 695 nm
- absorption maximum (in ClCCl): 695 nm

Compound: CCCCCCCCN(CCCCCCCC)c1ccc(/C=C/c2ccc(C#Cc3ccc(-c4ccc(C#Cc5ccc(/C=C/c6ccc(N(CCCCCCCC)CCCCCCCC)cc6)cc5)cc4)cc3)cc2)cc1
- absorption maximum (in Cc1ccccc1): 406 nm

Compound: COc1ccc2c(c1)c1ccccc1n2-c1nc2ccccc2nc1-n1c2ccccc2c2cc(OC)ccc21
- absorption maximum (in Cc1ccccc1): 423 nm

Compound: CCCCCCCCOc1ccc(C#Cc2ccc3oc4ccccc4c3c2)c(OCCCCCCCC)c1
- absorption maximum (in ClCCl): 314 nm

Compound: COc1ccc(C2=[N+]3C(=Nc4c(-c5ccccc5-c5ccc(C(C)(C)C)cc5)cc(-c5ccc(OC)cc5)n4[B-]3(F)F)c3c2c2cc(C(C)(C)C)ccc2c2ccccc32)cc1
- absorption maximum (in Cc1ccccc1): 701 nm

Compound: Cc1cccc2c3ccccc3n(-c3ccc(-c4c(-c5ccccc5)c(C#N)c(C#N)c(-c5ccccc5)c4-c4ccc(-n5c6ccccc6c6cccc(C)c65)cc4)cc3)c12
- absorption maximum (in Cc1ccccc1): 339 nm

Compound: COc1ccc(C2=C(c3ccc(OC)cc3)c3cccc4c3c(cc3nc5ccccc5nc34)O2)cc1
- absorption maximum (in ClCCl): 500 nm

Compound: CC1=CC(C)=[N+]2C1=C(c1ccc(-c3ccc(OS(=O)(=O)c4ccc([N+](=O)[O-])cc4[N+](=O)[O-])cc3)s1)c1c(C)cc(C)n1[B-]2(F)F
- absorption maximum (in CO): 512 nm
- absorption maximum (in Cc1ccccc1): 518 nm
- absorption maximum (in ClCCl): 515 nm

Compound: C#Cn1c(-c2cc(-c3nc4ccccc4n3C#C)cc(-c3nc4ccccc4n3C#C)c2)nc2ccccc21
- absorption maximum (in ClCCl): 305.5 nm

Compound: c1cnc(-c2c3ccccc3c(-c3ncccn3)c3ccccc23)nc1
- absorption maximum (in CCO): 389 nm
- absorption maximum (in ClCCl): 389 nm

Compound: CC(=O)[O-]
- absorption maximum (in O): 210 nm

Compound: CC(C)(C)c1ccc(C2=C(c3ccc(-n4c5ccc(C(C)(C)C)cc5c5cc(C(C)(C)C)ccc54)cc3)S(=O)(=O)c3c2sc(-c2ccc(-n4c5ccc(C(C)(C)C)cc5c5cc(C(C)(C)C)ccc54)cc2)c3-c2ccc(C(C)(C)C)cc2)cc1
- absorption maximum (in C1CCOC1): 429 nm

Compound: CCC1(CC)c2cc(/C=C/c3ccc(/C=C/c4ccc5c(c4)C(CC)(CC)c4cc(N6c7ccccc7Sc7ccccc76)ccc4-5)cc3)ccc2-c2ccc(N3c4ccccc4Sc4ccccc43)cc21
- absorption maximum (in C1CCOC1): 444.73 nm
- absorption maximum (in CC#N): 441.5 nm
- absorption maximum (in CCCCCC): 440.65 nm
- absorption maximum (in Cc1ccccc1): 446.43 nm
- absorption maximum (in ClCCl): 418 nm

Compound: CCC1(CC)c2ccccc2-c2c1c1c(c3c2C(CC)(CC)c2cc(B(c4c(C)cc(C)cc4C)c4c(C)cc(C)cc4C)ccc2-3)C(CC)(CC)c2cc(B(c3c(C)cc(C)cc3C)c3c(C)cc(C)cc3C)ccc2-1
- absorption maximum (in C1CCOC1): 364 nm
- absorption maximum (in CC#N): 359 nm
- absorption maximum (in CC(C)=O): 360 nm
- absorption maximum (in CCCCCC): 362 nm
- absorption maximum (in ClC(Cl)Cl): 362 nm

Compound: COc1ccc(N(c2ccc(OC)cc2)c2ccc(-c3ccc(-c4ccc(-c5ccc(-c6ccc(N(c7ccc(OC)cc7)c7ccc(OC)cc7)cc6)s5)c5nsnc45)s3)cc2)cc1
- absorption maximum (in ClC(Cl)Cl): 545 nm
